According to patent publication US9302991B2, “Arylamide derivatives as TTX-S blockers” (RaQualia Pharma Inc., priority 2010, dated 2016):

Target: T1, human Nav1.7 channels (Homo sapiens, UniProt Q15858)
T1 construct: expressed in transfected cells; host or cells: CHO
Assay: FRET assay, human Nav1.7 (EFS on FDSS)
Type: cell-based
Conditions: CHO cells expressing human Nav1.7, read-out: IC50 against Nav1.7
Experimental: The inhibitory activities of compounds against voltage gated sodium channels are determined by methodology well known in the art.
The ability of the aryl substituted carboxamide derivatives of the formula (I) to inhibit the NaV1.3, Nav1.7 and Nav1.5 channels is measured by Fluorescence Resonance Energy Transfer (FRET) assay and electrophysiology assay described below.
This screen is used to determine the effects of compounds on human Nav1.3, human Nav1.7, and human Nav1.5 channels, utilising electrical field stimulation (EFS) system in 96-well plate format on FDSS (Hamamatsu Photonics) platform. The change of membrane potential is monitored with FRET dye pair, oxonol (DiSBAC2(3)) and coumarin (CC2-DMPE).
CHO cells expressing human Nav1.7 channels are grown in T225 flasks, in a 5% CO2 humidified incubator to about 80% confluence. Media composition consists of HAM/F12 with Glutamax 1.10% FCS, 100 units/mL Penicillin and 100 microgram/mL Hygromycin.
Protocol: • Seed each cell lines (1×10^5 cells/well) into poly-D-lysine coated 96-well plates prior to experimentation. • Incubate at 37° C. in 5% CO2 for 24 hours. • Wash each well with assay buffer (140 mM NaCl, 4.5 mM KCl, 10 mM D-Glucose, 2 mM CaCl2, 1 mM MgCl2, 10 mM HEPES, pH 7.4 adjusted with NaOH) twice. • Add 1st loading solution containing 10 microM CC2-DMPE and 0.06% Pluronic F-127 in assay buffer. • Incubate the plate at room temperature in dark for 1 hour. • Remove 1st loading solution and added 2nd loading solution containing 15 microM DiSBAC2(3), 0.555 mM VABSC-1 and 0.004% Pluronic F-127 in assay buffer. • Place the plate under the dark at room temperature for 25 minutes. • Add compound solutions into the assay plate. • Set the assay plate in FDSS and placed an EFS device on the plate. • Measure EFS-induced fluorescent response by FDSS.
The data are analyzed and reported as normalized ratios of intensities measured at […]. The process of calculating these ratios is performed as follows:
This analysis is performed using a computerized specific program designed for FDSS generated data. Fluorescence ratio values are plotted using XLfit to determine an IC50 value for each compound.

T1 sequence (Q15858 whole entry): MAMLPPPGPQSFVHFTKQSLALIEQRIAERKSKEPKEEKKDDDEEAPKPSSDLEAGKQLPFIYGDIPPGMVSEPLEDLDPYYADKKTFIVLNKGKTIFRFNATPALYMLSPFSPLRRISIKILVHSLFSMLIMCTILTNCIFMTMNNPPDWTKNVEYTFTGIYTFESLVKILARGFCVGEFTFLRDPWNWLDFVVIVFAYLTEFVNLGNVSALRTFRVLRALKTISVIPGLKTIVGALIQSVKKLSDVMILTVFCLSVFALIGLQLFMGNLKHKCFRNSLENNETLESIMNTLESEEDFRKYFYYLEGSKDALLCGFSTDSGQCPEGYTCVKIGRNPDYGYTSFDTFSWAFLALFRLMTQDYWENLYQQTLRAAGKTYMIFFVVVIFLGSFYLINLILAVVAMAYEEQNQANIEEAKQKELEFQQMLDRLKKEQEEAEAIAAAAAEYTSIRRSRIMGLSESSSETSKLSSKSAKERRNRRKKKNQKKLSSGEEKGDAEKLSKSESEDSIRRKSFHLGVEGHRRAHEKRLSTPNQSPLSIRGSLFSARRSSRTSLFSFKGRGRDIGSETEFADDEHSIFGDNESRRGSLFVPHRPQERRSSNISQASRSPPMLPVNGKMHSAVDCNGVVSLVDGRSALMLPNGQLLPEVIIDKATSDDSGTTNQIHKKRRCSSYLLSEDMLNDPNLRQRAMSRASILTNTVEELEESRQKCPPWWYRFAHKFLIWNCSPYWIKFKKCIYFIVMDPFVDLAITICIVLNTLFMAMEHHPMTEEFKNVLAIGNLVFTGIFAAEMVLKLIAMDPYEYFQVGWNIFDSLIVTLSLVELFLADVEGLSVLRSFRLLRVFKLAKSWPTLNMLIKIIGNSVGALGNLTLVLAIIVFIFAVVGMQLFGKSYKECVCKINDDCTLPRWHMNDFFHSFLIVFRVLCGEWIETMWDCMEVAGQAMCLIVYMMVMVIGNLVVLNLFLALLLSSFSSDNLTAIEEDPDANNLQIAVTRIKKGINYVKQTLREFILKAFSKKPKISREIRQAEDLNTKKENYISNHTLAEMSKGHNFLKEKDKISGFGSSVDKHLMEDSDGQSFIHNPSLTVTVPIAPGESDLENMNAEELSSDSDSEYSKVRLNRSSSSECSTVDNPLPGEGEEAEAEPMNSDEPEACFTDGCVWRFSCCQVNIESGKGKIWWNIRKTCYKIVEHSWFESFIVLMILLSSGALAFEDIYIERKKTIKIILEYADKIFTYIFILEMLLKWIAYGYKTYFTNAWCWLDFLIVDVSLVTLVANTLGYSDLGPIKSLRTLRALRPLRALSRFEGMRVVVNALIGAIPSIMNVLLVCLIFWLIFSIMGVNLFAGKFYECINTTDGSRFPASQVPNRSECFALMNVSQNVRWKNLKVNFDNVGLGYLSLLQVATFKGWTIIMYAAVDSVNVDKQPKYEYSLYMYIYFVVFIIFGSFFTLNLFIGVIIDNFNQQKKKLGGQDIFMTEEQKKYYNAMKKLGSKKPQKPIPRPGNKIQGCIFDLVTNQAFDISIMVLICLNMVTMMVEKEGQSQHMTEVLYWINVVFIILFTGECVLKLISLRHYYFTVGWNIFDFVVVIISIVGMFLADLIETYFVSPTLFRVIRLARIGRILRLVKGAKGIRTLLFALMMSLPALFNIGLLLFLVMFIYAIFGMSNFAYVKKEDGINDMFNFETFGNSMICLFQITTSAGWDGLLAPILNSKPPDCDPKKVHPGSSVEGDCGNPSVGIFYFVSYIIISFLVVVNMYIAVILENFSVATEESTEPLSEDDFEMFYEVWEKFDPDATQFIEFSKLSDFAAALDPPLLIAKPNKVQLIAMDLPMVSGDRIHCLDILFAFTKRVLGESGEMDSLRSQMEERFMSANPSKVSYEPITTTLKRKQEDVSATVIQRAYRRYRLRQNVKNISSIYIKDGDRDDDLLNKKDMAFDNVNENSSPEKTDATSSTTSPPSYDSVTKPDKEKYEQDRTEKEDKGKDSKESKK

IC50, < 1000 nM:
COc1cc(C(C)NC(=O)c2cc(C)nc(NC(=O)C(C)C)c2)cnc1OCC(F)(F)F (single isomer, unassigned) [Example 487, 2-isobutyramido-N-(1-(5-methoxy-6-(2,2,2-trifluoroethoxy)pyridin-3-yl)ethyl)-6-methylisonicotinamide]
COc1c(CNC(=O)c2cc(C)nc(NC(C)=O)c2)cccc1C(F)(F)F [Example 819, 2-acetamido-N-(2-methoxy-3-(trifluoromethyl)benzyl)-6-methylisonicotinamide]
CC(C)C(=O)Nc1cc(C(=O)NC(C)c2cccc(SC(F)(F)F)c2)ccn1 (single isomer, unassigned) [Example 1030, 2-isobutyramido-N-(1-(3-((trifluoromethyl)thio)phenyl)ethyl)isonicotinamide]
CCC(=O)Nc1cc(C(=O)NCc2cc(F)c(OCC(F)(F)F)nc2OC)cc(C)n1 [Example 328, N-((5-fluoro-2-methoxy-6-(2,2,2-trifluoroethoxy)pyridin-3-yl)methyl)-2-methyl-6-propionamidoisonicotinamide]
CCC(=O)Nc1cc(C(=O)NC(C)c2ccc(OCC(F)(F)C(F)F)nc2)ccn1 (single isomer, unassigned) [Example 653, 2-propionamido-N-(1-(6-(2,2,3,3-tetrafluoropropoxy)pyridin-3-yl)ethyl)isonicotinamide]
CCOc1nc(OCC(F)(F)F)ccc1CNC(=O)c1ccnc(NC(=O)C(C)C)c1 [Example 335, N-((2-ethoxy-6-(2,2,2-trifluoroethoxy)pyridin-3-yl)methyl)-2-isobutyramidoisonicotinamide]
COc1nc(OCC(F)F)ccc1CNC(=O)c1cc(C)nc(NC(=O)C(C)C)c1 [Example 1157, N-((6-(2,2-difluoroethoxy)-2-methoxypyridin-3-yl)methyl)-2-isobutyramido-6-methylisonicotinamide]
CCCC(=O)Nc1cc(C(=O)NCc2cnc(OCC(F)F)c(CC)c2)ccn1 [Example 933, 2-butyramido-N-((6-(2,2-difluoroethoxy)-5-ethylpyridin-3-yl)methyl)isonicotinamide]
CC(=O)Nc1cc(C(=O)NC(C)c2cccc(OC(F)(F)F)c2)cc(C)n1 (single isomer, unassigned) [Example 420, 2-acetamido-6-methyl-N-(1-(3-(trifluoromethoxy)phenyl)ethyl)isonicotinamide]
Cc1cc(C(=O)NC(C)c2cccc(OC(F)(F)F)c2)cc(NC(=O)C2CC2)n1 (single isomer, unassigned) [Example 839, 2-(cyclopropanecarboxamido)-6-methyl-N-(1-(3-(trifluoromethoxy)phenyl)ethyl)isonicotinamide]
COc1cc(OC(F)(F)F)ccc1CNC(=O)c1cc(C)nc(NC(=O)C(C)C)c1 [Example 871, 2-isobutyramido-N-(2-methoxy-4-(trifluoromethoxy)benzyl)-6-methylisonicotinamide]
CCC(=O)Nc1cc(C(=O)NCc2ccc(OCC(F)F)c(Cl)c2)ccn1 [Example 998, N-(3-chloro-4-(2,2-difluoroethoxy)benzyl)-2-propionamidoisonicotinamide]
CC(=O)Nc1cc(C(=O)NCc2cnc(OCC(F)(F)F)cc2C)cc(C)n1 [Example 243, 2-acetamido-6-methyl-N-((4-methyl-6-(2,2,2-trifluoroethoxy)pyridin-3-yl)methyl)isonicotinamide]
CC(=O)Nc1cc(C(=O)NC(C)c2cnc(OCC(F)F)c(C)c2)cc(C)n1 (single isomer, unassigned) [Example 556, 2-acetamido-N-(1-(6-(2,2-difluoroethoxy)-5-methylpyridin-3-yl)ethyl)-6-methylisonicotinamide]
CCC(=O)Nc1cc(C(=O)NCc2ccc(OCC(F)(F)F)c(OC)c2)ccn1 [Example 882, N-(3-methoxy-4-(2,2,2-trifluoroethoxy)benzyl)-2-propionamidoisonicotinamide]
CC(NC(=O)c1ccnc(NC(=O)C2CC2)n1)c1ccc(OCC(F)(F)F)cc1Cl (single isomer, unassigned) [Example 802, N-(1-(2-chloro-4-(2,2,2-trifluoroethoxy)phenyl)ethyl)-2-(cyclopropanecarboxamido)pyrimidine-4-carboxamide]
COc1nc(OCC(F)(F)F)ccc1CNC(=O)c1cc(C)nc(NC(=O)C(C)C)n1 [Example 374, 2-isobutyramido-N-((2-methoxy-6-(2,2,2-trifluoroethoxy)pyridin-3-yl)methyl)-6-methylpyrimidine-4-carboxamide]
CCC(=O)Nc1cc(C(=O)NCc2cnc(OCC(F)(F)F)cc2C)cc(C)n1 [Example 179, 2-methyl-N-((4-methyl-6-(2,2,2-trifluoroethoxy)pyridin-3-yl)methyl)-6-propionamidoisonicotinamide]
COc1cc(C(C)NC(=O)c2ccnc(NC(=O)C3CC3)n2)cnc1OCC(F)(F)F (single isomer, unassigned) [Example 400, 2-(cyclopropanecarboxamido)-N-(1-(5-methoxy-6-(2,2,2-trifluoroethoxy)pyridin-3-yl)ethyl)pyrimidine-4-carboxamide]
CCC(=O)Nc1cc(C(=O)NC(C)c2cnc(OCC(F)(F)F)c(OC)c2)ccn1 (single isomer, unassigned) [Example 142]
Cc1cc(C(=O)NCc2cnc(OCC(F)(F)F)c(Br)c2)cc(NC(=O)C2CC2)n1 [Example 900, N-((5-bromo-6-(2,2,2-trifluoroethoxy)pyridin-3-yl)methyl)-2-(cyclopropanecarboxamido)-6-methylisonicotinamide]
O=C(NCc1ccc(OCC(F)(F)F)nc1)c1ccnc(NC(=O)C2CC2)n1 [Example 397, 2-(cyclopropanecarboxamido)-N-((6-(2,2,2-trifluoroethoxy)pyridin-3-yl)methyl)pyrimidine-4-carboxamide]
Cc1cc(C(=O)NC(C)c2cnc(OCC(F)F)c(Cl)c2)cc(NC(=O)C2CC2)n1 (single isomer, unassigned) [Example 1063, N-(1-(5-chloro-6-(2,2-difluoroethoxy)pyridin-3-yl)ethyl)-2-(cyclopropanecarboxamido)-6-methylisonicotinamide]
CCc1cc(CNC(=O)c2cc(C)nc(NC(C)=O)c2)cnc1OCC(F)F [Example 932, 2-acetamido-N-((6-(2,2-difluoroethoxy)-5-ethylpyridin-3-yl)methyl)-6-methylisonicotinamide]
CC(C)C(=O)Nc1cc(C(=O)N[C@H](C)c2cccc(C(F)(F)F)c2)ccn1 (single isomer, unassigned) [Example 530]
CC(=O)Nc1cc(C(=O)NC(C)c2cccc(OCC(F)(F)F)c2)cc(C)n1 (single isomer, unassigned) [Example 1009, 2-acetamido-6-methyl-N-(1-(3-(2,2,2-trifluoroethoxy)phenyl)ethyl)isonicotinamide]
CCC(=O)Nc1cc(C(=O)NCc2ccc(OCC(F)F)c(C)c2)ccn1 [Example 989, N-(4-(2,2-difluoroethoxy)-3-methylbenzyl)-2-propionamidoisonicotinamide]
CC(=O)Nc1cc(C(=O)NCc2ccc(OCC(F)(F)F)nc2N2CCOCC2)ccn1 [Example 281, 2-acetamido-N-((2-morpholino-6-(2,2,2-trifluoroethoxy)pyridin-3-yl)methyl)isonicotinamide]
CCC(=O)Nc1cc(C(=O)NCc2ccc(OCC(F)(F)F)nc2N2CCCCC2)ccn1 [Example 303, N-((2-(piperidin-1-yl)-6-(2,2,2-trifluoroethoxy)pyridin-3-yl)methyl)-2-propionamidoisonicotinamide]
CCCC(=O)Nc1cc(C(=O)NC(C)c2ccc(OCC(F)(F)F)nc2)ccn1 (single isomer, unassigned) [Example 40, 2-butyramido-N-(1-(6-(2,2,2-trifluoroethoxy)pyridin-3-yl)ethyl)isonicotinamide]
Cc1cc(C(=O)NCc2ccc(OCC(F)F)c(Cl)c2)cc(NC(=O)C(C)C)n1 [Example 1003, N-(3-chloro-4-(2,2-difluoroethoxy)benzyl)-2-isobutyramido-6-methylisonicotinamide]
CC(=O)Nc1cc(C(=O)N[C@H](C)c2cccc(C(F)(F)F)c2)ccn1 (single isomer, unassigned) [Example 7]
